Four compounds from publication PMC8745710, “Biological Evaluation and Molecular Docking Studies of Novel 1,3,4-Oxadiazole Derivatives of 4,6-Dimethyl-2-sulfanylpyridine-3-carboxamide” (International Journal of Molecular Sciences, 2022) can be followed below.

For one assay, the system named is V79 cell line. Briefly: Intracellular ROS level (DCFH-DA), V79 cells. The assay is classed as cell-based, Chinese hamster. To be noted: Cricetulus griseus, 4 h, V79, compound 100 μM. How it is done:
(§1) Two cell lines were chosen for investigations: V79 (Chinese hamster lung fibroblasts) and LoVo. V79 normal cells are widely used as the cell line tested in the studies of the oxidative stress. These cells are a living system model to explain the mechanism of ROS effects caused by varied compounds [73].
(§2) First, the tested compounds (in concentration of 100 μM) were added to the cell cultures and cells were incubated for 4 h. Then cells were washed and incubated with DCFH-DA (non-fluorescent probe) in dark at 37 °C for 2 h at CO2 [79]. Non-fluorescent, non-polar DCFH-DA (2′7′-dichlorodihydrofluorescein diacetate) at concentration of 25 μM was used as a marker of oxidative stress to determine the intracellular ROS levels. […] In this time, DCFH-DA which penetrated into the cells, was hydrolyzed by esterases to polar, non-fluorescent DCFH (2′7′-dichlorodihydrofluorescein) and then oxidized in the presence of ROS (reactive oxygen species) to fluorescent DCF (2′7′-dichlorofluorescein). DCF was measured using Varioscan LUX microplate reader (Thermo Fisher Scientific, Waltham, MA, USA) at λex = 485 nm and λem = 535 nm. Then results were presented as E/E0 where E is test sample value and E0—control value.
[…] E is the culture with the tested compound and E0 is the negative control without the compound. The routine statistical methods: two-way analysis of variance ANOVA as well as Tukey’s post-hoc test were used. It allowed us to determine the statistical significance of results, where p < 0.05 was set as significant. The statistical indicators were estimated using Statistica 13.3 software.

The next assay has as its system LoVo cell line. Briefly: Intracellular ROS level (DCFH-DA), LoVo cells. The conditions noted are these: Homo sapiens, 4 h, compound 100 μM. The assay is classed as cell-based. As to the method:
as §1
as §2, with “nm.” for “nm. Then results were presented as E/E0 where E is test sample value and E0—control value.”
E is the culture with the tested compound and E0 is the negative control without the compound. The routine statistical methods: two-way analysis of variance ANOVA as well as Tukey’s post-hoc test were used. It allowed us to determine the statistical significance of results, where p < 0.05 was set as significant. The statistical indicators were estimated using Statistica 13.3 software.

For assay [1], the system named is V79 (fibroblasts from Chinese hamster lung). Briefly: MTT assay, V79. The assay is classed as cell-based. The conditions noted are these: Cricetulus griseus, Fibroblast, 48 h incubation, read-out: IC50 [µM] ± SD V79. The text has this: (§3) The MTT (3-[4,5-dimethylthiazol-2-yl]-2,5-diphenyl tetrazolium bromide) assay was used to determine the cytotoxicity of tested compounds towards different cell lines: normal human dermal fibroblasts (NHDF), kidney epithelial cells (VERO), fibroblasts from Chinese hamster lung (V79) and four human cancer cells: A549 (pulmonary basal cell alveolar adenocarcinoma), MCF-7 (breast adenocarcinoma), LoVo (colon adenocarcinoma), and its drug resistant subline LoVo/Dx. The cell lines used in this study express COX-1 and COX-2. The LoVo line expressed COX-1, the LoVo/Dx subline express both COX-1 and COX-2 [61].
(§4) Each cell line was grown in the culture media recommended by supplier. Before the test they were detached with trypsin/EDTA solution, then to neutralize the effect of Trypsin/EDTA solution, FBS containing medium was used. After centrifugation the cells were stained with 0.4% solution of trypan blue, counted and inspected for viability using microscope. In the end, cells were inserted into 96-well culture plates and incubated in CO2 incubator (37 °C, 24 h). The number of cells was 2 × 10^3 cells per well. The tested compounds with different concentrations (5, 10, 20, 50, 100 µM) were dissolved in DMSO and then added to the cells (the final DMSO concentration was 0.1%). The cultures were incubated for another 48 h. After that time the cells were collected to be used in tests.
(§5) MTT assay was used to find out how tested compounds influence the metabolic activity of investigated cell lines. The cells were incubated with tested compounds. After removing of supernatant, 1 mg/mL of MTT solution in MEM was added to the plate (to each well) and then the plates were incubated at 37 °C for 2 h. The medium was removed again, and formazan crystals were dissolved in isopropanol. A Varioscan LUX microplate reader (Thermo Fisher Scientific, Waltham, MA, USA) was used to measure absorbance at 570 nm.

Assay [2] concerns LoVo/Dx (drug resistant subline of LoVo). Briefly: MTT assay, LoVo/Dx. The conditions noted are these: Homo sapiens, 48 h incubation, read-out: IC50 [µM] ± SD LoVo/Dx. The assay is classed as cell-based.
From the text: as §3
as §4, with “In the end, cells were inserted into 96-well culture plates and incubated in CO2 incubator (37 °C, 24 h).” left out
MTT assay was used to find out how tested compounds influence the metabolic activity of investigated cell lines. The cells were incubated with tested compounds. […] The medium was removed again, and formazan crystals were dissolved in isopropanol.

For assay [3], the system named is A549 (pulmonary basal cell alveolar adenocarcinoma). Briefly: MTT assay, A549. The assay is classed as cell-based. The conditions noted are these: Homo sapiens, 48 h incubation, read-out: IC50 [µM] ± SD A549.
From the text: as §3, §4, §5

The test system of assay [4] is VERO (kidney epithelial cells). Briefly: MTT assay, VERO. In kind it is cell-based. The conditions noted are these: 48 h incubation.
From the text: as §3, §4, §5

Assay [5] deals with LoVo (colon adenocarcinoma). Briefly: MTT assay, LoVo. To be noted: Homo sapiens, 48 h incubation, read-out: IC50 [µM] ± SD LoVo. The assay is classed as cell-based.
From the text: as §3, §4, §5

In assay [6] the test system is NHDF (normal human dermal fibroblasts). Briefly: MTT assay, NHDF. In kind it is cell-based. The conditions noted are these: 48 h incubation, read-out: IC50 [µM] ± SD NHDF.
From the text: as §3, §4, §5

The mark [7] stands for this setting: with H2O2 (100 μM, 30 min), n = 5, read-out: ROS scavenging activity, Mean E/E0 ± SD, with H2O2.
Where [8] appears, read: without H2O2, n = 5, read-out: ROS scavenging activity, Mean E/E0 ± SD, without H2O2.

Read-outs that look alike come from different tables or passages of the source.

Consider `Cc1c(C)c2c(c(C)c1O)CCC(C)(C(=O)O)O2` (stereo not shown) [Trolox, trolox, reference compound], for which the activity at 100 µM in the assay on V79 cell line (setting [7]) came out at 15 ± 8%; in the assay with V79 cell line (setting [8]), 71 ± 5%; with LoVo cell line (setting [7]) it was 29 ± 15%; in the assay with LoVo cell line (setting [8]), 85 ± 13%.
Regarding `O=C1O[C@H]([C@@H](O)CO)C(O)=C1O` [Ascorbic acid, ascorbic acid, reference compound], the activity at 100 µM is 22 ± 12% in the assay on V79 cell line (setting [7]), 83 ± 13% with V79 cell line (setting [8]), 32 ± 9% with LoVo cell line (setting [7]) and 89 ± 11% in the assay on LoVo cell line (setting [8]).
As for `CN1C(C(=O)Nc2ccccn2)=C(O)c2ccccc2S1(=O)=O` [Piroxicam, piroxicam, reference compound], the IC50 in assay [1] was 213 ± 23.2 µM; in assay [2], 126 ± 11.2 µM; in assay [3], 110 ± 28.2 µM; in assay [5], 122 ± 10.2 µM; in assay [6] it was 162 ± 22.9 µM. Also, in assay [4], the “IC50 [µM] ± SD VERO” value is recorded as “no toxicity”. Also, the activity at 100 µM with V79 cell line (setting [7]) worked out at 67 ± 17%; in the assay with V79 cell line (setting [8]), 98 ± 17%; with LoVo cell line (setting [7]), 81 ± 19%; in the assay on LoVo cell line (setting [8]), 72 ± 19%.
For the compound `Cc1cnc(NC(=O)C2=C(O)c3ccccc3S(=O)(=O)N2C)s1` [Meloxicam, meloxicam, reference compound], the IC50 in assay [1] amounted to 201 ± 17.8 µM; in assay [2] it was 142 ± 9.46 µM; in assay [6] it was 196 ± 35.2 µM. In assay [4], the “IC50 [µM] ± SD VERO” value is given as “no toxicity”. For the same compound, the activity at 100 µM in the assay with V79 cell line (setting [7]) was determined as 85 ± 18%; with V79 cell line (setting [8]), 115 ± 19%; in the assay on LoVo cell line (setting [7]), 89 ± 16%.
